Where “and” joins values, the source holds several entries; their conditions need not be identical. Identical values can stand only once. Like-named read-outs stand apart in the source and are kept apart here. One block for each sequence: values may come before it. Ends that are not written are not given here.
Columns and labels:
Experiment in all cases: SPR binding of MBP-PDZ analyte to immobilised biotinylated peptides
SCRIB-3/4 PDZ domain = molecular target: T1, SCRIB-3/4 PDZ domain (Homo sapiens, UniProt Q14160); conditions: SPR Biacore 2000, 25 C, steady state, 1:1 binding isotherm, MBP-PDZ 0-30 µM, to be considered with caution
T1 construct: cDNA bearing residues 997–1093, 1097–1193 and 997–1193 of human SCRIB (Uniprot acc.: Q14160-1); made in house; host or cells: E. coli BL21 DE3
T1 sequence (Q14160 997-1093 isoform Q14160-1): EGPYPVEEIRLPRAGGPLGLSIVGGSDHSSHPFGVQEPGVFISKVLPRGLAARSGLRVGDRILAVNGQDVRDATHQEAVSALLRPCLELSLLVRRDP
Protocol: (§1) We opted for the surface plasmon resonance (SPR) method to measure these 190 (19 proteins×2 peptide versions×5 PDZ constructs) interactions. In SPR various concentrations of “analytes” (here, PDZ domains fused to the Maltose Binding Protein (MBP)) flow over surfaces presenting attached “ligands” (here, biotinylated peptides). The amount of analyte interacting with the ligand is measured and quantified in response units (RU). The intensity of this signal is proportional to the binding strength of the assayed interaction (Figure 5A). K [drawing 13] were obtained using a 1∶1 interaction model. However, these calculated K [drawing 14] were rather inaccurate especially for weak interactions. Therefore, we preferred to rank the binding strengths of the 190 interactions using normalised RU signals at equilibrium ( [drawing 15] ) rather than K [drawing 16] (see Methods for details). These normalised [drawing 17] values were plotted in form of a heat map (Figure 5B).
(§2) The cDNA encoding residues 448–572 and 613–752 of mouse MAGI-1 (UniProt acc.: Q6RHR9-1) encoding for MAGI1-2/6 (100% identical to human MAGI1-2/6) and MAGI1-3/6 (99% identical to human MAGI1-3/6) PDZ domains, respectively, were inserted into the NcoI/KpnI sites of the pETM-41 expression vector (EMBL) containing a 6×His-MBP tag followed by a TEV protease cleavage site. A similar cloning strategy was adopted for cDNA bearing residues 997–1093, 1097–1193 and 997–1193 of human SCRIB (Uniprot acc.: Q14160-1) encoding for SCRIB-3/4, SCRIB-4/4 PDZ domains and SCRIB-34/4 tandem PDZ construct, respectively.
(§3) Data were collected on a Biacore 2000 instrument (Biacore AB/GE Healthcare Bio-Sciences Corp., Piscataway, NJ, USA) at 25 [drawing 74] C. SPR experiments (ligand immobilisation and binding measurements) have been performed as described in Fournane et al.. Briefly, biotinylated peptides (instead of GST-fused recombinant peptides) were immobilised on CM5 sensorchips on which Neutravidin was previously attached. The MBP-PDZ domain analyte was injected at 8 to 10 different concentrations ranging from 0 up to 30 [drawing 75] M. Data were processed using the BiaEvaluation 3.2 software (Biacore AB/GE Healthcare Bio-Sciences Corp.) using “double referencing” [78] in which sensorgrams were corrected for buffer effects and bulk refractive index changes.
(§4) The steady-state binding signal ( [drawing 76] ) was derived by averaging the signals in a five second window at equilibrium. Steady-state analysis was performed by fitting the average signal [drawing 77] as a function of total MBP-PDZ concentrations, assuming a simple 1∶1 interaction binding isotherm model. […] Reasons for this inaccuracy are likely to be the following: 1. As previously described, several repetitions of all the measurements are required to determine accurate K [drawing 81] . In our case, such repetitions were not achievable in reasonable time due to the large amount of interactions measured in this study. 2. The highest injected analyte concentration restricts the maximal K [drawing 82] (weakest interaction) that can be accurately obtained. 3. A K [drawing 83] is estimated based on a mathematical extrapolation of observed [drawing 84] signals leading to additional uncertainty. Based on these reasons, we considered the calculated K [drawing 85] not as accurate enough to be used for absolute binding strength comparison in this study. We rather performed a relative analysis of binding strengths using directly [drawing 86] signals which are not biased by any mathematical assumption. We focussed on [drawing 87] signals obtained at 10 [drawing 88] M MBP-PDZ concentration, which have been systematically measured in duplicate. The [drawing 89] signal is directly proportional to the molecular weight of the analyte and the amount of immobilised ligand. Therefore, the [drawing 90] signals were normalised taking those into account before being used for binding strength comparison. […]

[1] = molecular target: T2, SCRIB-34/4 tandem PDZ construct (Homo sapiens, UniProt Q14160); conditions: SPR Biacore 2000, 25 C, steady state, 1:1 binding isotherm, MBP-PDZ 0-30 µM, to be considered with caution
T2 construct: residues 997–1093, 1097–1193 and 997–1193 of human SCRIB (Uniprot acc.: Q14160-1); made in house; host or cells: E. coli BL21 DE3
T2 sequence (Q14160 997-1193 isoform Q14160-1): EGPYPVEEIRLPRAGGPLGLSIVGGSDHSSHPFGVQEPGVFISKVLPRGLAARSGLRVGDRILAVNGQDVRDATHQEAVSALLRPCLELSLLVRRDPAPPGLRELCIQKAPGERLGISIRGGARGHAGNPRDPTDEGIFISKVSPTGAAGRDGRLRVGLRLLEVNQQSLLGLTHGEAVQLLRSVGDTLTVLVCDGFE
Protocol: as §1, §2, §3, §4

SCRIB-4/4 PDZ domain = molecular target: T3, SCRIB-4/4 PDZ domain (Homo sapiens, UniProt Q14160); conditions: SPR Biacore 2000, 25 C, steady state, 1:1 binding isotherm, MBP-PDZ 0-30 µM, to be considered with caution
T3 construct: residues 997–1093, 1097–1193 and 997–1193 of human SCRIB (Uniprot acc.: Q14160-1); made in house; host or cells: E. coli BL21 DE3
T3 sequence (Q14160 1097-1193 isoform Q14160-1): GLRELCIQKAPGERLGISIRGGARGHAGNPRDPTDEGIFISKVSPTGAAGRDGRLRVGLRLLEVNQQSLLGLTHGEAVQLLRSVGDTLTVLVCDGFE
Protocol: as §1, §2, §3, §4

MAGI1-2/6 PDZ domain = molecular target: T4, MAGI1-2/6 PDZ domain (Mus musculus, UniProt Q6RHR9)
T4 construct: The cDNA encoding residues 448–572 and 613–752 of mouse MAGI-1 (UniProt acc.: Q6RHR9-1) encoding for MAGI1-2/6; made in house; host or cells: E. coli BL21 DE3
Protocol: as §1, §2, §3, §4

MAGI1-3/6 PDZ domain = molecular target: T5, MAGI1-3/6 PDZ domain (Mus musculus, UniProt Q6RHR9); conditions: SPR Biacore 2000, 25 C, steady state, 1:1 binding isotherm, MBP-PDZ 0-30 µM, to be considered with caution
T5 construct: The cDNA encoding residues 448–572 and 613–752 of mouse MAGI-1 (UniProt acc.: Q6RHR9-1); made in house; host or cells: E. coli BL21 DE3
Protocol: as §1, §2, §3, §4

[2] = SPR Biacore 2000, 25 C, steady state, 1:1 binding isotherm, MBP-PDZ 0-30 µM, to be considered with caution, read-out: tentative KD

T5 sequence (Q6RHR9 613-752): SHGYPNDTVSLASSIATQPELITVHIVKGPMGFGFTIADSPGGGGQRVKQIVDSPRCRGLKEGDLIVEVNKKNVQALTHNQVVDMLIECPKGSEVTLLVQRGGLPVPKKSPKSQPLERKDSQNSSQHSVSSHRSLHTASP
T4 sequence (Q6RHR9 448-572): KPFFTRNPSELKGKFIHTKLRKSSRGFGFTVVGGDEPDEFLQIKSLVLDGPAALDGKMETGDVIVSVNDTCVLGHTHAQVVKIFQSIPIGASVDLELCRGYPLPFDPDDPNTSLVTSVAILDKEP

Kd (SCRIB-3/4 PDZ domain; read-out: tentative KD): 88 µM
Sequence: GGWVEKETYY [ATP1A1_10]

Kd ([1]; read-out: tentative KD): 4 µM
Sequence: GSGAGSETSV [VANG2_05]

Kd (SCRIB-4/4 PDZ domain; read-out: tentative KD): 88 µM
Sequence: KDECVIATEV [DLL1_10]

Kd (MAGI1-2/6 PDZ domain; [2]): 23 µM
Sequence: KPGKGSETVV [FZD4_10]

Kd (MAGI1-2/6 PDZ domain; [2]): 18 µM
Sequence: NPDALPETLV [ARHGAP6_10]

Kd ([1]; read-out: tentative KD): 8 µM
Sequence: NRVDSKETEC [ADAM17_10]

Kd (MAGI1-3/6 PDZ domain; read-out: tentative KD): 37 µM
Sequence: PMESGICTIV [TTC24_10]

Kd ([1]; read-out: tentative KD): 8 µM
Sequence: QDEKVKESYV [ABC1_10]

Kd ([1]; read-out: tentative KD): 9 µM
Sequence: QGRWDHETIV [TMEM215_10]

Sequence: RSSRTRRETQV [16E6L/V, reference compound]
Kd (SCRIB-4/4 PDZ domain; tentative KD): 47 µM and 55 µM
Kd ([1]; tentative KD): 3 µM and 4 µM
Kd (SCRIB-3/4 PDZ domain; tentative KD): 18 µM and 41 µM and 32 µM
Kd (MAGI1-3/6 PDZ domain; tentative KD): 69 µM and 76 µM and 202 µM

Kd (MAGI1-2/6 PDZ domain; Table S3, column this study, SPR, read-out: this study (Kd)): 3 µM
Kd (MAGI1-3/6 PDZ domain; read-out: tentative KD): 37 µM
Sequence: SGGKRKETLV [NET1_10]

Kd (SCRIB-4/4 PDZ domain; read-out: tentative KD): 202 µM
Kd ([1]; read-out: tentative KD): 15 µM
Sequence: SVWLRKETRV [CYSLTR2_10]

Kd ([1]; read-out: tentative KD): 5 µM
Kd (SCRIB-3/4 PDZ domain; read-out: tentative KD): 12 µM
Sequence: VMRLQSETSV [VANG2_10]

Reference: paper PMC3206016, “Putting into Practice Domain-Linear Motif Interaction Predictions for Exploration of Protein Networks” (PLoS ONE, 2011)
